Measured values published in US20080299060A1, “Pharmaceutical Composition for the Treatment of Nail Diseases” (TLT MEDICAL LTD., priority 2006, published 2008).

Assay: In-vitro nail permeation assay (Franz type diffusion cells)
Assay type: in vitro ADME, human
Details: for Mean value of terbinafine concentration in the 5 mL receptor chamber of the Franz cell, Day 3 / Mean value of terbinafine concentration in the 5 mL receptor chamber of the Franz cell, Day 5: n=3
From the text: Permeation fluxes of active substances, determined from nail permeation assays, are used to predict the efficacy of the active substances in a clinical situation. A permeation assay similar to the one reported by Franz (T. J. Franz, Dermatology, 184, 18-20, 1992) was used to investigate the applicability of the present invention to the treatment of onychomycosis and, in particular, to evaluate the permeation fluxes of a terbinafine containing pharmaceutical composition and a protective layer in laser pre-treated human cadaver great toenails. The experimental setup emulates the clinical situation where the pharmaceutical composition remains liquid for an extended period of time inside the nail holes in the case of laser pretreated nails to maximize the diffusion of the terbinafine into the nail.
Human cadaver great toenails selected for the tests were soaked in physiological buffer solution for several hours before starting the assay. Nails were prepared for the assay by removal of epidermal residues on the ventral side. Round nail discs of 16 mm in diameter were punched. […] Nails were masked on the dorsal side by a silicon mounting ring leaving a nail area of 10 mm in diameter where the nails were exposed to the pharmaceutical composition and the protective layer.
Three groups of nail samples were investigated.
Group 1: Untreated nail samples were used in this group which is the control group. These nails were exposed to 25 μL of a lacquer containing 9% w/w terbinafine once a day.
(§1) Group 2: In this group perforated nails were used. These nails were exposed to 25 μL of a 10% w/w terbinafine in ethanol solution once a day. After the application of the 10% w/w ethanolic solution to these nails, nails were covered with 25 μL of a lacquer containing 9% w/w terbinafine to form the protective layer according to the present invention.
as §1, with “3:” for “2:”, “nails, these” for “nails,”, “without” for “containing 9% w/w”
Franz type diffusion cells made of glass were used in the assays having a volume of ca. 5 mL using demineralized water as receptor buffer. Nail samples were fixed on the Franz cells with sealing silicone and Teflon discs pressed with a metallic spring loading system. In this way the ventral sides of the nails were in contact with demineralized water in the cell while the dorsal sides were in contact with the pharmaceutical formulations and protective layer according to Table 1. Diffusion cells were kept at 32° C. during the permeation assays.
Cleaning of the nail sample and dissolution of previous layers of pharmaceutical composition and protective layers were performed prior to every reapplication of the pharmaceutical composition and the protective layer. For this purpose 100 microliters of dissolvent were applied to every nail sample. Subsequently, the nail samples were rubbed with a cleaning brush to ensure an exhaustive cleaning and then were dried with a cotton swab to remove with the dissolvent also the old components of the pharmaceutical solution and the protective layer. 25 microliters of the pharmaceutical composition were then applied to the exposed nail area and distributed with the application brush.
Samples of receptor fluid were collected at various time points and analyzed by liquid chromatography and mass spectroscopy. The removed sample volume was replaced by demineralized water. This dilution effects were accounted in the final determination of the permeation fluxes.

[1] = Group 1 (control): untreated nails, 9% w/w terbinafine lacquer once a day, dissolvent ethanol, 32° C.
[2] = Group 2: laser pretreated nails (400 partial orifices/cm^2), 10% w/w terbinafine in ethanol once a day, protective layer 9% w/w terbinafine lacquer
[3] = Group 3: laser pretreated nails (400 partial orifices/cm^2), 10% w/w terbinafine in ethanol once a day, protective layer lacquer without terbinafine

Permeation Fluxes (Group 1 (control): untreated nails, 9% w/w terbinafine lacquer once a day, dissolvent ethanol): 4.34 ng/cm^2/h
Mean value of terbinafine concentration in the 5 mL receptor chamber of the Franz cell, Day 3 [1]: 82.4 ng/mL
Mean value of terbinafine concentration in the 5 mL receptor chamber of the Franz cell, Day 5 [1]: 115.1 ng/mL
increase in the permeation fluxes as compared to the control group (group 1) (Group 2 (protective layer also contains terbinafine) vs group 1): 34 fold
Mean value of terbinafine concentration in the 5 mL receptor chamber of the Franz cell, Day 3 [2]: 305.2 ng/mL
Mean value of terbinafine concentration in the 5 mL receptor chamber of the Franz cell, Day 5 [2]: 1432.9 ng/mL
Permeation Fluxes (Group 2: laser pretreated nails, 10% w/w terbinafine in ethanol once a day, protective layer 9% w/w terbinafine lacquer): 149.6 ng/cm^2/h
increase in the permeation fluxes as compared to the control group (group 1) (Group 3 (protective layer does not contain terbinafine) vs group 1): 5 fold
Mean value of terbinafine concentration in the 5 mL receptor chamber of the Franz cell, Day 3 [3]: 94.5 ng/mL
Mean value of terbinafine concentration in the 5 mL receptor chamber of the Franz cell, Day 5 [3]: 272.6 ng/mL
Permeation Fluxes (Group 3: laser pretreated nails, 10% w/w terbinafine in ethanol once a day, protective layer lacquer without terbinafine): 23.6 ng/cm^2/h
Structure (SMILES): CN(C/C=C/C#CC(C)(C)C)Cc1cccc2ccccc12 [terbinafine]
